# In patent US20200109126A1 (priority 2017, published 2020):
# Entries after “also recorded” stand apart in the source; their conditions may differ. Where two headings read alike, the source gives them in different places.
# Legend:
# hMOR [1] = molecular target: T1, hMOR (Homo sapiens, UniProt P35372); test: Radioligand binding studies (Example 6) at hMOR
# Protocol: (§1) For a primary screen of selected molecules, binding to μOR was assessed by measuring competition against the radioligand ^3H-diprenorphine (^3H-DPN). […] The reaction contained 40 fmol of μOR and was incubated in a buffer of 20 mM HEPES pH 7.5, 100 mM sodium chloride, and 0.1% bovine serum albumin for 1 hour at 25° C. To separate free from bound radioligand, reactions were rapidly filtered over Whatman GF/B filters with the aid of a Brandel harvester and ^3H-DPN counts were measured by liquid scintillation. […] Subsequently, the 8 compounds were tested in full dose-response for affinity at the μOR and the κOR by the National Institutes of Mental Health Psychoactive Drug Screen Program (PDSP), as were the affinities of the compounds at the μOR, δOR, κOR, and the nociception receptor.
# hKOR [2] = molecular target: T2, hKOR (Homo sapiens, UniProt P41145); test: Radioligand binding studies (Example 6) at hKOR
# T2 sequence (P41145 whole entry): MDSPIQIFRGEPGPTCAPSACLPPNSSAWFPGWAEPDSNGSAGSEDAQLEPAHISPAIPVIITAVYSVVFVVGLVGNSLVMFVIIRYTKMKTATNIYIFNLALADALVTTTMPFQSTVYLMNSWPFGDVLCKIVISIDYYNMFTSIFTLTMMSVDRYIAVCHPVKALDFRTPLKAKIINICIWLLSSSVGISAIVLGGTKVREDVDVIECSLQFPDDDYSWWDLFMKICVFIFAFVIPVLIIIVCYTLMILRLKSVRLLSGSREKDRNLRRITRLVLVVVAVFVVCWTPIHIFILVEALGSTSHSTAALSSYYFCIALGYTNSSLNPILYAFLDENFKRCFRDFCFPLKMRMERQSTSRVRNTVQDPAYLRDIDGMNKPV
# Protocol: as §1
# hDOR = hDOR (Homo sapiens, UniProt P41143); test: Radioligand binding studies (Example 6) at hDOR
# Chain of hDOR (P41143 whole entry): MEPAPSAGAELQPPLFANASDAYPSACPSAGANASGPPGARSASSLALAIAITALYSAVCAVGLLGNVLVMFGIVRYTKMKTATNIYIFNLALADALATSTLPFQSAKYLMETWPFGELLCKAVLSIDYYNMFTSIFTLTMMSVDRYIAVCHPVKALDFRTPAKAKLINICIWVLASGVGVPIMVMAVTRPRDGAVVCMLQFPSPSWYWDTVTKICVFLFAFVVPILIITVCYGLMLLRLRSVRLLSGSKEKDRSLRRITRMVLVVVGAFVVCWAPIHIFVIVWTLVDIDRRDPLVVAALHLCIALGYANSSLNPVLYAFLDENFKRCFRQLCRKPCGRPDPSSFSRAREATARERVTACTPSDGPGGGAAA
# Protocol: as §1
# κOR = molecular target: T3, κOR (Homo sapiens, UniProt P41145); test: Radioligand binding at κOR (PDSP); conditions: for κOR Ki, given as percentage: <50% instead of a Ki
# T3 construct: NIMH Psychoactive Drug Screening Program (PDSP)
# T3 sequence (P41145 whole entry): as the sequence (P41145 whole entry) above
# μOR [3] = molecular target: T4, μOR (Homo sapiens, UniProt P35372); test: cell-based; format: cell-based; conditions: for EC50: ND = not detectable under these experimental conditions
# T4 sequence (P35372 whole entry): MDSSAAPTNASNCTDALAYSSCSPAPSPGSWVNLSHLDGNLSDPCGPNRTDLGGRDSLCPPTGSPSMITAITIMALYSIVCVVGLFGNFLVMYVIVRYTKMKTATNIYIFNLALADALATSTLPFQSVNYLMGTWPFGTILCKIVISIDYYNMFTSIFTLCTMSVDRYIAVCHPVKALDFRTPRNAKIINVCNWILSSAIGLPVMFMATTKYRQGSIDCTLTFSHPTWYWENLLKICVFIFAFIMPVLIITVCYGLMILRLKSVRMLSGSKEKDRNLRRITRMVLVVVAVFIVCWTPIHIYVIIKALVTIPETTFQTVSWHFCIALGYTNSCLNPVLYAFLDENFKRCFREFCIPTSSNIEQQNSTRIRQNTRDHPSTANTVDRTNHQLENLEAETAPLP
# nociceptin receptor = molecular target: T5, nociceptin receptor (Homo sapiens, UniProt P41146); test: Gi/o Glosensor assay at nociceptin receptor; format: cell-based; conditions: ND = not detectable
# T5 construct: NIMH Psychoactive Drug Screening Program (PDSP)
# T5 sequence (P41146 whole entry): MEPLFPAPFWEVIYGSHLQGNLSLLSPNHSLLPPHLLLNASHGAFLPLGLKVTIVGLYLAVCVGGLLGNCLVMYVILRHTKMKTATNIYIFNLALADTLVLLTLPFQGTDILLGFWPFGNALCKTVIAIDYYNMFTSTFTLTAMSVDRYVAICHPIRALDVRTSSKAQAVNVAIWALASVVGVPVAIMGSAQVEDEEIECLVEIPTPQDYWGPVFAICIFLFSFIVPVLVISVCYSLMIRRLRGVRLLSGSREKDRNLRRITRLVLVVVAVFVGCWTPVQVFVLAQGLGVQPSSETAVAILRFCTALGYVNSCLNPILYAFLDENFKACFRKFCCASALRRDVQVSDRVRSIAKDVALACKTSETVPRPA
# μOR [4] = molecular target: T4, μOR; test: β-arrestin2 recruitment, PathHunter assay; format: cell-based
# hMOR + Gqi5 = molecular target: T6, hMOR + Gqi5 (Homo sapiens, UniProt P35372); test: IP accumulation assay, hMOR + Gqi5; format: cell-based; conditions: % morphine
# T6 construct: expressed in transfected cells
# T6 sequence (P35372 whole entry): as the sequence (P35372 whole entry) above
# hMOR [5] = molecular target: T1, hMOR; test: Receptor binding with [3H]diprenorphine at hMOR
# hKOR [6] = molecular target: T2, hKOR; test: Receptor binding with [3H]diprenorphine at hKOR
# humanDOR = humanDOR (Homo sapiens, UniProt P41143); test: Receptor binding with [3H]diprenorphine at human DOR
# Chain of humanDOR (P41143 whole entry): as the sequence (P41143 whole entry) above
# MM1 (MOR N127C) = molecular target: T7, MM1 (MOR N127C) (Homo sapiens, UniProt P35372, N129C); test: Receptor binding at MM1 (MOR N127C)
# T7 construct: expressed in transfected cells; host or cells: HEK 293
# T7 sequence (P35372 whole entry N129C): as the sequence (P35372 whole entry) above, with N129C counted along it
# μOR [7] = molecular target: T4, μOR; test: biochemical; format: binding; set-up: expressed in transfected cells; host or cells: HEK293 membranes (Ki); Sf9 insect cell membranes (single-point screen); PDSP for analogs
# Protocol: For a primary screen of selected molecules, binding to OR was assessed by measuring competition against the radioligand ^3H-diprenorphine (^3H-DPN). […] The reaction contained 40 fmol of μOR and was incubated in a buffer of 20 mM HEPES pH 7.5, 100 mM sodium chloride, and 0.1% bovine serum albumin for 1 hour at 25° C. To separate free from bound radioligand, reactions were rapidly filtered over Whatman GF/B filters with the aid of a Brandel harvester and ^3H-DPN counts were measured by liquid scintillation.
# μOR [8] = molecular target: T4, μOR; test: BRET-based cAMP accumulation assay (SAR of PZM21-29); format: cell-based; conditions: for loss of potency: compared to parent reference compound (PZM22)
# [9] = κOR Ki (μM), analogs, full dose-response
# [10] = PZM analogs, (n) = number of independent experiments, read-out: binding affinity Ki hMOR
# [11] = PZM analogs, (n) = number of independent experiments, read-out: binding affinity Ki hKOR
# [12] = PZM analogs, (n) = number of independent experiments, read-out: binding affinity Ki hDOR
# [13] = (n) = number of independent experiments, read-out: binding affinity Ki MM1 (MOR N127C)
# [14] = analogs, full dose-response, read-out: μOR Ki
# [15] = ± SD (two experiments) or SEM, (n) experiments, read-out: hMOR [3H]dyprenorphine Ki
# [16] = ± SD (two experiments) or SEM, (n) experiments, read-out: hKOR [3H]dyprenorphine Ki
# [17] = ± SD (two experiments) or SEM, (n) experiments, read-out: humanDOR [3H]dyprenorphine Ki
# T1 sequence (P35372 whole entry): as the sequence (P35372 whole entry) above
compound,measurement,setting,value
"C[C@@H](Cc1ccsc1)Nc1c(NC[C@H](Cc2ccc(O)cc2)N(C)C)c(=O)c1=O [DD251, 3-(((S)-2-(dimethylamino)-3-(4-hydroxyphenyl)propyl)amino)-4-(((S)-1-(thiophen-3-yl)propan-2-yl)amino)cyclobut-3-ene-1,2-dione]",Ki,hMOR [1],33 nM
same,Ki,hKOR [2],16 nM
same,Ki,hDOR,650 nM
C[C@H](Cc1ccsc1)NC(=O)NC[C@@H](Cc1ccccc1)N(C)C [compound 12],Ki,κOR; Ki (nM) κOR,464 nM
same,Ki,κOR; [9],460 nM
same,"Gi/o activation, μOR agonist activity (in words)",μOR [3],robust μOR agonist activity; also recorded: strongly activated Gi/o
same,EC50,nociceptin receptor,1400 nM
same,β-arrestin2 recruitment (in words),μOR [4],undetectable; also recorded: low levels
"CC(Cc1ccsc1)NC(=O)NCC(Cc1ccc(O)cc1)N(C)C (single isomer, unassigned) [BD 122LS]",hMOR + Gqi5 IP accumulation assay efficacy a,hMOR + Gqi5,a: 73%
"CC(=O)Oc1ccc(C[C@@H](CNC(=O)N[C@@H](C)Cc2ccsc2)N(C)C)cc1 [DD230, 4-((S)-2-(dimethylamino)-3-(3-((S)-1-(thiophen-3-yl)propan-2-yl)ureido)propyl)phenyl acetate]",Ki,hMOR [1],240 nM
same,Ki,hKOR [2],250 nM
same,Ki,hDOR,920 nM
"CN(C)[C@H](CNc1nc(=O)cc(Cc2ccccc2)[nH]1)Cc1ccc(O)cc1 [DD258, (S)-6-benzyl-2-((2-(dimethylamino)-3-(4-hydroxyphenyl)propyl)amino)pyrimidin-4(1H)-one]",Ki,hMOR [1],290 nM
same,Ki,hKOR [2],350 nM
same,Ki,hDOR,390 nM
CN(C)[C@H](CNC(=O)NCCCCN1C(=O)C=CC1=O)Cc1ccc(O)cc1,Ki,hMOR [5]; [10],1000 nM
same,Ki,hKOR [6]; [11],760 nM
same,Ki,humanDOR; [12],4900 nM
same,Ki,MM1 (MOR N127C); [13],5.9 nM
CN(C)[C@@H](CNC(=O)NC[C@@H](O)c1cnn(C)c1)Cc1ccccc1 [compound 11],"κOR Ki, given as percentage",κOR,<50%
same,Ki,μOR [7]; [14],1860 nM
"CN(CC1CC1)[C@H](CNC(=O)NCCc1ccccc1)Cc1ccc(O)cc1 [PZM27, (S)-1-(2-((Cyclopropylmethyl)(methyl)amino)-3-(4-hydroxyphenyl)propyl)-3-phenethylurea x CF3COOH]",efficacy and potency as agonist (in words),μOR [8],decreased efficacy
same,loss of potency,μOR [8],30 fold
Cc1cc(O)cc(C)c1C[C@@H](CNC(=O)NCCN1C(=O)C=CC1=O)N(C)C,Ki,hMOR [5]; [10],18 nM
same,Ki,hKOR [6]; [11],200 nM
same,Ki,humanDOR; [12],150 nM
same,Ki,MM1 (MOR N127C); [13],0.93 nM
C[C@@H](CN1C(=O)C=CC1=O)NC(=O)NC[C@H](Cc1ccc(O)cc1)N(C)C,Ki,hMOR [5]; [10],410 nM
same,Ki,hKOR [6]; [11],1200 nM
same,Ki,humanDOR; [12],860 nM
same,Ki,MM1 (MOR N127C); [13],5.6 nM
CN(C)[C@H](CNC(=O)NCCc1c[nH]nn1)Cc1ccc(O)cc1,Ki,hMOR [5],960 nM
same,Ki,hKOR [6],1400 nM
same,Ki,humanDOR,4700 nM
same,Ki,MM1 (MOR N127C),630 nM
C[C@@H](Cc1ccsc1)NC(=O)NC[C@H](Cc1ccc(O)nc1)N(C)C,Ki,hMOR [5]; [10],4600 nM
same,Ki,hKOR [6]; [11],12000 nM
same,Ki,humanDOR; [12],> 20000 nM
same,Ki,MM1 (MOR N127C); [13],3800 nM
CN(C)[C@H](CNC(=O)NCCN1C(=O)C=CC1=O)Cc1ccc(O)cc1,Ki,hMOR [5]; [10],240 nM
same,Ki,hKOR [6]; [11],600 nM
same,Ki,humanDOR; [12],450 nM
same,Ki,MM1 (MOR N127C); [13],3.7 nM
CC(C)[C@H](CNC(=O)c1ccc([N+](=O)[O-])s1)N1CCc2ccccc2C1 [compound 8],Ki,"κOR; analogs, full dose-response, read-out: κOR Ki",460 nM
same,EC50,μOR [3]; read-out: μOR Gi EC50,6.6 µM
same,Ki,μOR [7]; [14],820 nM
"COc1ccc(C[C@@H](CNC(=O)N[C@@H](C)Cc2ccsc2)N(C)C)cc1 [DD222, 1-((S)-2-(dimethylamino)-3-(4-methoxyphenyl)propyl)-3-((S)-1-(thiophen-3-yl)propan-2-yl)urea]",Ki,hMOR [1],390 nM
same,Ki,hKOR [2],460 nM
same,Ki,hDOR,5900 nM
"(S)-1-(2-(dimethylamino)-3-(4-hydroxy-2,6-dimethylphenyl)propyl)-3-(2-(thiophen-3-yl)ethyl)urea [DD 34L]",Ki,hMOR [5]; [15],6.2 nM
same,Ki,hKOR [6]; [16],27 nM
same,Ki,humanDOR; [17],51 nM
same,hMOR + Gqi5 IP accumulation assay efficacy a,hMOR + Gqi5,a: <5%
"CN(C=O)[C@H](CNC(=O)NCCc1ccccc1)Cc1ccc(O)cc1 [PZM28, (S)—N-(1-(4-Hydroxyphenyl)-3-(3-phenethylureido)propan-2-yl)-N-methylformamide]",loss of potency,μOR [8],1000 fold
O=C(Cc1cn2ccccc2n1)NCC1(c2ccccc2)CCC1 [compound 9],Ki,κOR; [9],1360 nM
same,"μOR Ki column, given as percentage",μOR [7]; <50% instead of a Ki,<50%
CN(C)[C@H](CNC(=O)NCc1cccc([N+](=O)[O-])c1)Cc1ccccc1 [compound 14],Ki,κOR; [9],510 nM
same,EC50,μOR [3]; μOR Gi EC50 (μM),0.44 µM
same,Ki,μOR [7],87 nM
"CN(C)[C@H](CNc1c(NCCc2ccccc2)c(=O)c1=O)Cc1ccc(O)cc1 [DD247, (S)-3-((2-(dimethylamino)-3-(4-hydroxyphenyl)propyl)amino)-4-(phenethylamino)cyclobut-3-ene-1,2-dione]",Ki,hMOR [1],320 nM
same,Ki,hKOR [2],310 nM
same,Ki,hDOR,2900 nM
C[C@H](CN1C(=O)C=CC1=O)NC(=O)NC[C@H](Cc1ccc(O)cc1)N(C)C,Ki,hMOR [5]; [10],90 nM
same,Ki,hKOR [6]; [11],690 nM
same,Ki,humanDOR; [12],210 nM
same,Ki,MM1 (MOR N127C); [13],0.13 nM
CN(C)[C@H](CNC(=O)NCCc1cn(CCSSCCN=[N+]=[N-])nn1)Cc1ccc(O)cc1 [drawing 545],Ki,hMOR [5]; [10],420 nM
same,Ki,hKOR [6]; [11],1500 nM
same,Ki,humanDOR; [12],3900 nM
same,Ki,MM1 (MOR N127C); [13],34 nM
Cc1nc(CNC(=O)NC[C@@H](Cc2ccccc2)N(C)C)sc1C [compound 15],"κOR Ki, given as percentage",κOR,<50%
same,Ki,μOR [7],130 nM
"Cc1cc(O)cc(C)c1C[C@@H](CNC(=O)N[C@@H](C)Cc1ccsc1)N(C)C [BD 131LS, 1-((S)-2-(dimethylamino)-3-(4-hydroxy-2,6-dimethylphenyl)propyl)-3-((S)-1-(thiophen-3-yl)propan-2-yl)urea]",Ki,hMOR [5]; [15],12 nM
same,Ki,hKOR [6]; [16],6.5 nM
same,Ki,humanDOR; [17],85 nM
same,hMOR + Gqi5 IP accumulation assay efficacy a,hMOR + Gqi5,a: <5%
"CC(Cc1ccsc1)NC(=O)NCC(Cc1ccc(O)cc1)N(C)C (single isomer, unassigned) [BD 122LR]",Ki,hKOR [6]; [16],190 nM
same,Ki,humanDOR; [17],88 nM
same,hMOR + Gqi5 IP accumulation assay efficacy a,hMOR + Gqi5,a: 17%
"COc1cc(F)ccc1CCNC(=O)NC[C@H](Cc1ccc(O)cc1)N(C)C [DD214, (S)-1-(2-(dimethylamino)-3-(4-hydroxyphenyl)propyl)-3-(4-fluoro-2-methoxyphenethyl)urea]",Ki,hMOR [1],42 nM
same,Ki,hKOR [2],170 nM
same,Ki,hDOR,390 nM
CN(C)[C@H](CNC(=O)NCCCN1C(=O)C=CC1=O)Cc1ccc(O)cc1,Ki,hMOR [5]; [10],380 nM
same,Ki,hKOR [6]; [11],450 nM
same,Ki,humanDOR; [12],3100 nM
same,Ki,MM1 (MOR N127C); [13],4.7 nM
COc1nc(C)cc(C)c1CNC(=O)NC[C@@H](Cc1ccccc1)N(C)C [compound 13],Ki,κOR; [9],1020 nM
same,EC50,μOR [3]; μOR Gi EC50 (μM),3.1 µM
same,Ki,μOR [7],550 nM
"Cc1cc(O)cc(C)c1C[C@@H](CNC(=O)N[C@H](C)Cc1ccsc1)N(C)C [BD 131LR, 1-((S)-2-(dimethylamino)-3-(4-hydroxy-2,6-dimethylphenyl)propyl)-3-((R)-1-(thiophen-3-yl)propan-2-yl)urea]",Ki,hMOR [5]; [15],4.1 nM
same,Ki,hKOR [6]; [16],12 nM
same,Ki,humanDOR; [17],17 nM
same,hMOR + Gqi5 IP accumulation assay efficacy a @10 μM,hMOR + Gqi5; @10 μM,@10 μM a: 10%
"C[C@@H](Cc1ccsc1)NC(=O)NC[C@@H]1Cc2ccc(O)cc2CN1C [DD118, 1-(((S)-7-hydroxy-2-methyl-1,2,3,4-tetrahydroisoquinolin-3-yl)methyl)-3-((S)-1-(thiophen-3-yl)propan-2-yl)urea]",Ki,hMOR [1],150 nM
same,Ki,hKOR [2],110 nM
same,Ki,hDOR,150 nM
"CN[C@H](CNC(=O)NCCc1ccc(F)cc1OC)Cc1ccc(O)cc1 [DD229, (5)-1-(4-fluoro-2-methoxyphenethyl)-3-(3-(4-hydroxyphenyl)-2-(methylamino)propyl)urea]",Ki,hMOR [1]; read-out: Binding affinities hMOR [3H]dyprenorph,130 nM
same,Ki,hKOR [2]; read-out: Binding affinities hKOR [3H]dyprenorph,320 nM
same,Ki,hDOR; read-out: Binding affinities hDOR [3H]dyprenorph,480 nM
CN(Cc1nnc(C2CC2)n1C)C(=O)NC[C@@H](Cc1ccccc1)N(C)C [compound 10],"κOR Ki, given as percentage",κOR,<50%
same,Ki,μOR [7],4750 nM
